# Source: US12630544B2, “Compound, α-synuclein aggregate binder, and use thereof” (NATIONAL INSTITUTES FOR QUANTUM SCIENCE AND TECHNOLOGY, priority 2020, dated 2026)
# Key:
# α-synuclein lesion = biological target: T1, α-synuclein lesion (Mus musculus, UniProt O55042); test: In vivo two-photon laser scanning fluorescence microscopy of α-synuclein fibril-inoculated model mouse; conditions: 50 μl DMSO solution containing 0.1% compound, i.p.; excitation 900 nm
# T1 construct: from tissue; host or cells: brain of C57/BL/6 mouse inoculated in the striatum with recombinant (E. coli) mouse α-synuclein fibrils; sections or living animal
# Procedure: First, mouse α-synuclein was expressed in and extracted from E. coli as a recombinant protein, and then incubated in vitro to form insoluble α-synuclein aggregates. The α-synuclein aggregates were then inoculated into the striatum of a mouse. […] Note that the inoculation of the α-synuclein aggregates into the striatum of the mouse was carried out in the following manner. First, hair on the head of a 9-week-old C57/BL/6 male mouse which had been anesthetized with 1.5% (v/v) isoflurane was removed, and the scalp was disinfected with isodine, followed by application of xylocaine and incision in the scalp to expose the skull. Then, a hole was drilled in the skull at a position of 0.05 mm posterior to the bregma and 2 mm lateral to the midline, and 3 μl of an α-synuclein fibril solution (mouse α-synuclein fibril (4 mg/ml) in saline) was injected into a position […] ventral to the brain surface with use of a glass pipette. The scalp was then returned and sutured.
# A model mouse was anesthetized with 1.5% (v/v) isoflurane 6 or more weeks after inoculation of an α-synuclein fibril solution. Then, a cranial window was placed on the model mouse in accordance with the Seylaz-Tomita method (Tomita et al. J Cereb Blood Flow Metab 25, 858-67, 2005). Two or more weeks after the placement of the cranial window, the mouse was anesthetized with 1.5% (v/v) isoflurane, and then 50 μl of a DMSO solution containing 0.1% BF-227, PBB3, SPAL-T-05, or SPAL-T-06 was intraperitoneally administered to the mouse. Thirty minutes after the administration, the mouse was fixed under a two-photon laser fluorescence microscope, 100 μl of physiological saline containing 5 mM Sulforhodamine 101 was intraperitoneally administered to the mouse, and then intravital two-photon fluorescence imaging was carried out at an excitation wavelength of 900 nm. Detection wavelengths for BF-227, PBB3, SPAL-T-05, and SPAL-T-06 were set at 500 nm to 550 nm, and a detection wavelength for Sulforhodamine 101 was set at 573 nm to 648 nm. In FIG. 4, each arrowhead indicates a blood vessel, and each arrow indicates fluorescence from the compound binding to an α-synuclein lesion.
# α-synuclein aggregates [1] = biological target: T2, α-synuclein aggregates (Homo sapiens, UniProt P37840); test: In vitro fluorescence microscope measurement, amygdala sections of DLB patient brain; parameters: α-synuclein aggregates formed in the brain of the DLB patient; from tissue; host or cells: post-mortem human brain: amygdala of DLB patient (sections or homogenate); cerebellum of MSA patient; conditions: 30 μM test compound
# From the text: (§1) Postmortem human brains were obtained in autopsies carried out with respect to a patient with dementia with Lewy bodies (DLB) and a patient with Alzheimer's disease (AD). In a cryostat (HM560, Carl Zeiss), frozen tissue from the DLB patient was sliced into sections each having a thickness of 20 μm. Brain tissue from the AD patient was fixed in 10% neutral buffered formalin, embedded in a paraffin block, and sliced into sections each having a thickness of 6 μm.
# Postfixed fresh frozen sections of amygdala tissue obtained from the brain of the DLB patient and deparaffinized sections of formalin-fixed paraffin-embedded middle frontal gyrus tissue obtained from the brain of the AD patient were used. Each brain section and a 30 μM test compound were incubated in a 50% ethanol solution at room temperature for 30 minutes. Thereafter, the section was washed with a 50% ethanol solution for 5 minutes and with ultrapure water for 3 minutes. This washing was carried out twice. After the section was mounted in a mounting medium (VECTASHIELD H-1000, Vector Laboratories), an image of a lesion-enriched area on the section was obtained with use of a fluorescence microscope (DM4000, Leica, excitation wavelength: 391 nm to 437 nm). In FIG. 1, each arrowhead indicates fluorescence from the compound binding to α-synuclein aggregates in the brain of the DLB patient, each arrow indicates fluorescence from the compound binding to amyloid-β aggregates in the brain of the AD patient, and an asterisk indicates fluorescence from the compound binding to tau aggregates in the brain of the AD patient. The fluorescence intensities of lesion-enriched areas and lesion-free areas (background) were quantified with use of analysis software (Image J). Note that SPAL-T-05 and SPAL-T-06 were each used as the test compound. Note also that BF-227 (2-(2-[2-dimethylaminothiazol-5-yl]ethenyl)-6-(2-[fluoro]ethoxy)benzoxazole (catalog No.: NP039-0)) and PBB3 (2-((1E,3E)-4-(6-(methylamino)pyridin-3-yl)buta-1,3-dienyl)benzo[d]thiazol-6-ol) (catalog No.: NP039-0), each available from NARD INSTITUTE, LTD., were each used as a control compound.
# [2] = tested on: tau aggregates or amyloid-β aggregates; test: In vitro fluorescence microscope measurement, middle frontal gyrus sections of AD patient brain; parameters: species or system human; conditions: 30 μM compound
# From the text: as §1
# Postfixed fresh frozen sections of amygdala tissue obtained from the brain of the DLB patient and deparaffinized sections of formalin-fixed paraffin-embedded middle frontal gyrus tissue obtained from the brain of the AD patient were used. […] After the section was mounted in a mounting medium (VECTASHIELD H-1000, Vector Laboratories), an image of a lesion-enriched area on the section was obtained with use of a fluorescence microscope (DM4000, Leica, excitation wavelength: 391 nm to 437 nm). In FIG. 1, each arrowhead indicates fluorescence from the compound binding to α-synuclein aggregates in the brain of the DLB patient, each arrow indicates fluorescence from the compound binding to amyloid-β aggregates in the brain of the AD patient, and an asterisk indicates fluorescence from the compound binding to tau aggregates in the brain of the AD patient. […]
# α-synuclein aggregates [3] = biological target: T2, α-synuclein aggregates; conditions: background statement, cited from earlier work
detection of / binding to α-synuclein lesions in living mouse brain (two-photon fluorescence) (α-synuclein lesion),binding selectivity: α-synuclein aggregates (DLB brain) versus tau aggregates or amyloid-β aggregates (AD brain) (α-synuclein aggregates [1]; fluorescence of lesion-enriched vs lesion-free areas),binding to aggregates in the brain of the AD patient (fluorescence) [2],Compound,"binding to α-synuclein aggregates formed in the brain of the DLB patient (fluorescence) (α-synuclein aggregates [1]; 50% ethanol, room temperature, 30 minutes, amygdala sections)",binding selectivity with respect to the α-synuclein aggregates (α-synuclein aggregates [3]; binds to amyloid-β aggregates),binding affinity with respect to the α-synuclein aggregates (α-synuclein aggregates [3])
no α-synuclein lesion was detected,low binding selectivity,mainly bound to the amyloid-β aggregates,"CN(C)c1ncc(C=Cc2nc3ccc(OCCF)cc3o2)s1 [BF-227, 2-(2-[2-dimethylaminothiazol-5-yl]ethenyl)-6-(2-[fluoro]ethoxy)benzoxazole, reference compound]",weaker than that of each of SPAL-T-06 and SPAL-T-05,,
no α-synuclein lesion was detected,,,"CNc1ccc(/C=C/C=C/c2nc3ccc(O)cc3s2)cn1 [PBB3, 2-((1E,3E)-4-(6-(methylamino)pyridin-3-yl)buta-1,3-dienyl)benzo[d]thiazol-6-ol, reference compound]",,,
,,,CN(C)c1ncc(C=Cc2nc3ccc(OCCF)cc3o2)s1 [[^11C]BF-227],,low binding selectivity,insufficient binding affinity
